From PMC6225228, “Design, Synthesis and Evaluation of N-pyrazinylbenzamides as Potential Antimycobacterial Agents” (Molecules : A Journal of Synthetic Chemistry and Natural …, 2018) come the findings set out here.

As usually defined, the MIC is the least concentration at which growth counts as inhibited.

Converted amounts (≈) assume the structure as drawn. Read-outs that look alike come from different tables or passages of the source.

Assay [1] relates to Mycobacterium tuberculosis H37Rv CNCTC My 331/88 (ATCC 27294). The assay can be described thus: Antimycobacterial microdilution MABA, M. tuberculosis. Format: cell-based. Particulars: Middlebrook 7H9 with OADC growth supplement, pH = 6.6, MABA. On the technique in general: Dilution methods test growth across graded concentrations, often in twofold steps.
The test system of assay [2] is M. kansasii CNCTC My 235/80 (ATCC 12478). The assay can be described thus: Antimycobacterial microdilution MABA, M. kansasii. Particulars: Middlebrook 7H9 with OADC, pH 6.6, MABA. The assay is classed as cell-based, Mycobacterium kansasii.
Assay [3] has as its system M. avium ssp. avium CNCTC My 80/72 (ATCC 15769). The experiment in a line: Antimycobacterial microdilution MABA, M. avium. The assay is classed as cell-based, Mycobacterium avium. To be noted: Middlebrook 7H9 with OADC, pH 6.6, MABA.
In assay [4] the test system is Mycobacterium smegmatis CCM 4622 (ATCC 607). The assay can be described thus: Antimycobacterial microdilution, M. smegmatis. Format: cell-based. Particulars: Middlebrook 7H9 with OADC, resazurin; for MIC: Mycolicibacterium smegmatis, read-out: M. smeg. ATCC 607 MIC.
The subject of assay [5] is Candida albicans ATCC 44859. The assay can be described thus: Antifungal microdilution broth, CA. Format: cell-based. Particulars: Candida albicans, read-out: MIC CA.
The test system of a further assay is Candida tropicalis 156. The experiment in a line: Antifungal microdilution broth, CT. Particulars: read-out: MIC CT. The assay is classed as cell-based.
The next assay concerns Candida krusei E28. The experiment in a line: Antifungal microdilution broth, CK. Format: cell-based. To be noted: Pichia kudriavzevii, read-out: MIC CK.
For the next assay, the system named is Candida glabrata 20/I. The experiment in a line: Antifungal microdilution broth, CG. The assay is classed as cell-based. Particulars: Nakaseomyces glabratus, 20/I, read-out: MIC CG.
For a further assay, the system named is Trichosporon asahii 1188. The experiment in a line: Antifungal microdilution broth, TA. The assay is classed as cell-based. Particulars: read-out: MIC TA.
The test system of assay [6] is Aspergillus fumigatus 231. The assay can be described thus: Antifungal microdilution broth, AF. The assay is classed as cell-based. To be noted: read-out: MIC AF.
The subject of assay [7] is Lichtheimia corymbifera 272. The assay can be described thus: Antifungal microdilution broth, LC. Format: cell-based. To be noted: read-out: MIC LC.
For assay [8], the system named is Trichophyton interdigitale 445. The assay can be described thus: Antifungal microdilution broth, TI. The assay is classed as cell-based. To be noted: read-out: MIC TI.
Assay [9] has as its system Staphylococcus aureus CCM 4516/08. The experiment in a line: Antibacterial microdilution broth, SA. The assay is classed as cell-based. To be noted: read-out: MIC SA.
The subject of assay [10] is Staphylococcus aureus H 5996/08 methicillin resistant. The experiment in a line: microbe, parasite or virus in culture. The assay is classed as cell-based.
The subject of assay [11] is Staphylococcus epidermidis H 6966/08. The assay can be described thus: Antibacterial microdilution broth, SE. The assay is classed as cell-based. Particulars: read-out: MIC SE.
Assay [12] concerns Enterococcus sp. J 14365/08. The experiment in a line: Antibacterial microdilution broth, EF. To be noted: read-out: MIC EF. Format: cell-based.
The test system of assay [13] is Escherichia coli CCM 4517. The assay can be described thus: Antibacterial microdilution broth, EC. The assay is classed as cell-based. Particulars: read-out: MIC EC.
Assay [14] concerns Pseudomonas aeruginosa CCM 1961. The assay can be described thus: Antibacterial microdilution broth, PA. Particulars: read-out: MIC PA. Format: cell-based.
[15] abbreviates: Trichosporon asahii, 1188, 24 h.
Setting [16] is: Trichosporon asahii, 1188, 48 h.
Setting [17] is: Aspergillus fumigatus, 231, 24 h.
Where [18] appears, read: Aspergillus fumigatus, 231, 48 h.
The mark [19] stands for this setting: Lichtheimia corymbifera, 272, 24 h.
Where [20] appears, read: Lichtheimia corymbifera, 272, 48 h.
Where [21] appears, read: Trichophyton interdigitale, 445, 72 h.
Setting [22] is: Trichophyton interdigitale, 445, 120 h.

Consider `O=C(Nc1cncc(Cl)n1)c1ccccc1O` [Compound 3b], for which the “Mtb H37Rv ATCC 27294 MIC” value in assay [1] was more than 100 µg/mL. In addition, the “M. kans. ATCC 12478 MIC” value in assay [2] was more than 100 µg/mL. Moreover, the “M. avium ATCC 15769 MIC” value in assay [3] is on record as more than 100 µg/mL. In assay [4], the “M. smeg. ATCC 607 MIC” value was 250 µg/mL.
In the case of `OC(Cn1cncn1)(Cn1cncn1)c1ccc(F)cc1F` [FLU, fluconazole, reference compound], the MIC in assay [5] (ATCC44859, 24 h) was 0.24 µM (≈ 0.0735 µg/mL); in [5] (ATCC44859, 48 h), 0.24 µM (≈ 0.0735 µg/mL); with Candida tropicalis 156 (Candida tropicalis, 156, 24 h) it was more than 500 µM; in the assay with Candida tropicalis 156 (Candida tropicalis, 156, 48 h), more than 500 µM; in the assay on Candida krusei E28 (E28, 24 h) it was 125 µM (≈ 38.3 µg/mL); in the assay with Candida krusei E28 (E28, 48 h), 250 µM (≈ 76.6 µg/mL). The MIC in the assay with Candida glabrata 20/I (24 h) was 31.2 µM (≈ 9.57 µg/mL); with Candida glabrata 20/I (48 h), 250 µM (≈ 76.6 µg/mL); in the assay with Trichosporon asahii 1188 (setting [15]), 250 µM (≈ 76.6 µg/mL); in the assay with Trichosporon asahii 1188 (setting [16]), 500 µM (≈ 153 µg/mL); in [6] (setting [17]), more than 500 µM; in assay [6] (setting [18]), more than 500 µM. The MIC was more than 500 µM in [7] (setting [19]), more than 500 µM in assay [7] (setting [20]), 7.81 µM (≈ 2.39 µg/mL) in [8] (setting [21]) and 125 µM (≈ 38.3 µg/mL) in assay [8] (setting [22]).
Regarding `O=C(O)c1cn(C2CC2)c2cc(N3CCNCC3)c(F)cc2c1=O` [CPX, ciprofloxacin, reference compound], the MIC in assay [4] stood at 0.195 µg/mL (≈ 0.589 µM).
On to `C[C@@H](c1ncncc1F)[C@](O)(Cn1cncn1)c1ccc(F)cc1F` [VOR, voriconazole, reference compound], for which the MIC in assay [5] (ATCC44859, 24 h) was 0.002 µM (≈ 0.000699 µg/mL); in assay [5] (ATCC44859, 48 h) it was 0.008 µM (≈ 0.00279 µg/mL); in the assay on Candida tropicalis 156 (Candida tropicalis, 156, 24 h), 62.5 µM (≈ 21.8 µg/mL); with Candida tropicalis 156 (Candida tropicalis, 156, 48 h) it was 250 µM (≈ 87.3 µg/mL); with Candida krusei E28 (E28, 24 h) it was 0.49 µM (≈ 0.171 µg/mL); in the assay on Candida krusei E28 (E28, 48 h), 1.95 µM (≈ 0.681 µg/mL). Besides, the minimal inhibitory concentration (MIC) in the assay with Candida glabrata 20/I (24 h) was 0.24 µM (≈ 0.0838 µg/mL); with Candida glabrata 20/I (48 h), 250 µM (≈ 87.3 µg/mL); with Trichosporon asahii 1188 (setting [15]) it was 0.98 µM (≈ 0.342 µg/mL); with Trichosporon asahii 1188 (setting [16]) it was 7.81 µM (≈ 2.73 µg/mL); in assay [6] (setting [17]), 0.49 µM (≈ 0.171 µg/mL); in [6] (setting [18]), 1.95 µM (≈ 0.681 µg/mL). In addition, the MIC amounted to 125 µM (≈ 43.7 µg/mL) in assay [7] (setting [19]), 250 µM (≈ 87.3 µg/mL) in [7] (setting [20]), 0.061 µM (≈ 0.0213 µg/mL) in assay [8] (setting [21]) and 0.12 µM (≈ 0.0419 µg/mL) in [8] (setting [22]).
For bacitracin [reference compound], the minimal inhibitory concentration (MIC) in assay [9] (24 h) is given as 15.62 µM; in [9] (48 h) it was 31.25 µM; in assay [11] (24 h), 15.62 µM; in assay [11] (48 h), 31.25 µM; in [12] (24 h), 31.25 µM; in assay [12] (48 h) it was 31.25 µM. Moreover, the MIC in assay [13] (24 h), in assay [13] (48 h), in [14] (72 h) and in [14] (120 h) was more than 500 µM each time. The “MIC MRSA” value in assay [10] (24 h) was found to be 15.62 µM; in assay [10] (48 h), 31.25 µM.
On to `CCc1ccc(C(=O)Nc2cncc(Cl)n2)cc1` [Compound 3i], for which the MIC in assay [1] (Mycobacterium tuberculosis, read-out: Mtb H37Rv ATCC 27294 MIC) was more than 100 µg/mL; in assay [2] (Mycobacterium kansasii, ATCC12478, read-out: M. kans. ATCC 12478 MIC), more than 100 µg/mL; in assay [3] (Mycobacterium avium, ATCC15769, read-out: M. avium ATCC 15769 MIC) it was more than 100 µg/mL; in assay [4], not below 500 µg/mL.
